Data taken from patent publication US5591613A, “Method for the preparation of D-arginine and L-ornithine” (Degussa Aktiengesellschaft, priority 1990, dated 1997).

Legend:
[1] = molecular target: T1, Calf liver arginase (Bos taurus, UniProt Q2KJ64); assay: Arginase-catalysed hydrolysis of L-Arg to L-Orn, initial rates in batch, with and without inhibitors; assay type: biochemical; conditions: for conversion (%) after 1.0 hrs / conversion (%) after 1.5 hrs / conversion (%) after 2.0 hrs / ro, arginase: 0.5 M L-Arg; for conversion (%) after 1.0 hrs / conversion (%) after 1.5 hrs / conversion (%) after 2.0 hrs / ro, arginase / Vo Arginase / conversion after 2 hrs.: starting pH 11.5; for ro, arginase %: relative to 100:0; for kind of inhibition / substrate behaviour: from conversion-time profiles (FIG. 3); for Vo Arginase / conversion after 2 hrs.: 0.75 M L-Arg
T1 construct: purchased Boehringer Mannheim (Mannheim, F.R.G.)
T1 sequence (Q2KJ64 1-322): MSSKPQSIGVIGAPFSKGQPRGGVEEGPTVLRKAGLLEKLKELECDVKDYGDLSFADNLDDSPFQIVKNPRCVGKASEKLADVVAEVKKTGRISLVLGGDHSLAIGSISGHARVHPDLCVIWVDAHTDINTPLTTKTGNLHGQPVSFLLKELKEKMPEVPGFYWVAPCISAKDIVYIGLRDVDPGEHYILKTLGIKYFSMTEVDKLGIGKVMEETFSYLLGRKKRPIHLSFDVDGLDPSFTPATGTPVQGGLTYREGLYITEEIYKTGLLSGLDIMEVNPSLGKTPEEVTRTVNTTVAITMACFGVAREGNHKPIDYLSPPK
Description: In further experiments, the materials used were: Calf liver arginase (activity 110 U/mg) which was obtained from Boehringer Mannheim (Mannheim, F.R.G.). Amino acids were from Rexim (Ham, France). MnSO4, MnO2, and ascorbic acid were from E. Merck (Darmstadt, F.R.G.).
(§1) Batch conditions used were: Starting pH value, except for the activity-pH curve, was either 11.5, the natural value for L-Arg in water, or 9.5, adjusted from pH 11.5 with conc. HCl. The temperature was 25° C. unless otherwise noted. Typical concentrations of L-Arg were 0.75M. Unless otherwise mentioned, [Mn2^+ ]=5-10^-4 M. Reaction progress was followed by HPLC (amino column, mobile phase: phosphate buffer (pH 6.4)/acetonitrile).
Kinetic data was obtained as follows: Initial rate data were analyzed by a non-linear regression method (Marquardt routine) with the program OPTI (U. Giesecke, KFA J ulich).
A linear slope of 1/[S] vs. [I] plot distinguishes a purely competitive inhibition mechanism from a partially competitive one. Simultaneously, the apparent and the intrinsic KM -value are proportional to [I] according to equation (5) from which the inhibition constant KI can be calculated
Since the runs have been conducted at [LArg]=50 mM=2·Km,intr,Vo =Vmax ·2·KM,intr /(KM,intr (3+[I]/KI))=Vmax ·2/(3+[I]/KI). At [I]=KI, Vo =Vmax 2/(3+1)=Vmax /2. So, KI can be calcuated with sufficient accuracy from a Vo vs. [I] plot such as FIG. 4. […] In this work, however, maximum product concentration was sought for optimal space-time-yield and work-up efficiency.

[2] = system: arginase; conditions: literature value; cited from earlier work
[3] = system: ox liver arginase; conditions: literature; cited from earlier work
[4] = molecular target: T1, Calf liver arginase; assay: Activation of arginase by Mn2+ ions; assay type: biochemical
Description: as §1
Activation by Mn^2+ ions and MnO2 precipitation: An optimum concentration of the activator Mn^2+ of 0.5 mM was found. At the prevalent alkaline pH values, MnO2 from the oxidation of Mn^2+ precipitates. To suppress oxidation, ascorbic acid was added as an reducing agent.

N=C(N)NCCC[C@@H](N)C(=O)O [D-Arg, D-arginine]
conversion (%) after 1.0 hrs ([1]; Ratio L/D-Arg 50:50 (DL)): 15.6% | conversion (%) after 1.5 hrs ([1]; Ratio L/D-Arg 50:50 (DL)): 19.4% | conversion (%) after 2.0 hrs ([1]; Ratio L/D-Arg 50:50 (DL)): 26.4% | ro, arginase ([1]; Ratio L/D-Arg 50:50 (DL)): 0.097 mol/L/h | ro, arginase % ([1]; Ratio L/D-Arg 50:50 (DL)): 59.5% | conversion (%) after 1.0 hrs ([1]; Ratio L/D-Arg 60:40): 22.2% | conversion (%) after 1.5 hrs ([1]; Ratio L/D-Arg 60:40): 32.2% | conversion (%) after 2.0 hrs ([1]; Ratio L/D-Arg 60:40): 35.4% | ro, arginase ([1]; Ratio L/D-Arg 60:40): 0.1376 mol/L/h | ro, arginase % ([1]; Ratio L/D-Arg 60:40): 73.6% | conversion (%) after 1.0 hrs ([1]; Ratio L/D-Arg 70:30): 24.6% | conversion (%) after 1.5 hrs ([1]; Ratio L/D-Arg 70:30): 31.8% | conversion (%) after 2.0 hrs ([1]; Ratio L/D-Arg 70:30): 35.4% | ro, arginase ([1]; Ratio L/D-Arg 70:30): 0.1380 mol/L/h | ro, arginase % ([1]; Ratio L/D-Arg 70:30): 73.8% | conversion (%) after 1.0 hrs ([1]; Ratio L/D-Arg 85:15): 25.1% | conversion (%) after 1.5 hrs ([1]; Ratio L/D-Arg 85:15): 34.8% | conversion (%) after 2.0 hrs ([1]; Ratio L/D-Arg 85:15): 40.2% | ro, arginase ([1]; Ratio L/D-Arg 85:15): 0.150 mol/L/h | ro, arginase % ([1]; Ratio L/D-Arg 85:15): 80.3% | kind of inhibition / substrate behaviour [1]: neither a substrate of arginase nor a non-competitive inhibitor

N=C(N)NCCC[C@H](N)C(=O)O [L-Arg, L-arginine]
kind of inhibition / substrate behaviour [1]: not a substrate inhibitor | Vmax ([1]; nonlinear regression of initial rate data with L-Arg): 459 Units (=μmol/(min·mg)) | Km [2]: 4 mM | Km [3]: 29 mM

NCCCC[C@H](N)C(=O)O [L-Lys, reference compound]
Vo Arginase ([1]; inhibitor 0.1 M): 0.129 mol/L/h | conversion after 2 hrs. ([1]; inhibitor 0.1 M): 34.3% | Vo Arginase ([1]; inhibitor 0.2 M): 0.120 mol/L/h | conversion after 2 hrs. ([1]; inhibitor 0.2 M): 32.1% | Vo Arginase ([1]; inhibitor 0.4 M): 0.086 mol/L/h | conversion after 2 hrs. ([1]; inhibitor 0.4 M): 22.9% | Vo Arginase ([1]; inhibitor 0.5 M): 0.075 mol/L/h | conversion after 2 hrs. ([1]; inhibitor 0.5 M): 19.9% | Vo Arginase ([1]; inhibitor 0.75 M): 0.066 mol/L/h | conversion after 2 hrs. ([1]; inhibitor 0.75 M): 17.5% | activity at 100000 µM ([1]; read-out: Vo Arginase (%)): 85.3% | activity at 200000 µM ([1]; read-out: Vo Arginase (%)): 79.9% | activity at 400000 µM ([1]; read-out: Vo Arginase (%)): 57% | activity at 500000 µM ([1]; read-out: Vo Arginase (%)): 49.5% | activity at 750000 µM ([1]; read-out: Vo Arginase (%)): 43.5% | Ki [2]: 1300 µM

NCCC[C@H](N)C(=O)O [L-Orn, L-ornithine]
Ki [2]: 1300 µM

[Mn+2] [Mn^2+]
optimum concentration of the activator [4]: 0.5 mM
